According to patent US10738024B2, “Compounds for treatment of angiogenesis-mediated diseases” (Indiana University Research and Technology Corporation, priority 2013, dated 2020):
“Also recorded” adds a separate entry of the source.

Tests used:
[1] = system: HUVECs; experiment: EdU incorporation (DNA synthesis) in HUVECs; assay type: cell-based, human; details: 24 hours treatment, 10 μM EdU pulse; listed as SH-11052 (2)
Experimental: In order to confirm the inhibition of cell proliferation, incorporation of 5-ethynyl-2′-deoxyuridine (EdU) into endothelial cells in the presence of SH-11052 (2) was further monitored. Particularly, cells (25,000 per coverslip) were seeded onto coverslips coated with Attachment Factor (Cell Systems, Kirkland, Wash., USA) placed in a 6-well plate and incubated with the indicated concentrations of SH-11052 (2) in EGM-2 for 24 hours at 37° C. and 5% CO2. The cells were then serum starved for 8 hours and the medium was replaced with EGM-2 containing 10 μM EdU. The plate was further incubated for another 8 hours before processing the cells for detection of labeled DNA (according to the manufacturer's instructions for the Click-iT EdU assay kit). Images were taken using an EVOS fluorescence microscope (AMG, Mill Creek, Wash., USA) and the number of DAPI stained and EdU stained cells were counted in six randomly chosen fields using ImageJ software.

[2] = system: HRECs; experiment: Matrigel tube formation by HRECs; assay type: cell-based, human; details: for tube formation ability of HRECs: compared to DMSO control, concentration not given
Experimental: Matrigel assays were performed as described in Ponce (2001) In vitro matrigel angiogenesis assays, Methods Mol Med 46: 205-209, with slight modifications for the use of HRECs. Briefly, HRECs were starved overnight at 0.5% FBS in EBM-2 and plated on a 96-well plate at a density of 7,500 cells/well over 50 μL of Matrigel high concentration basement membrane. SH-11052 (2) was added at the indicated concentrations in EBM-2+1% FBS. Cells were observed every 2 hours by bright field microscopy at 40× magnification for tube formation. Closed units (polygons) were manually counted at 8 hours post plating and numbers normalized to the DMSO control. Assays were performed in triplicate.
For determining the effect of analog compound SH-11037 (6c) on tube formation, HRECs were plated in 100 μL of EGM-2 containing SH-11037 (6c) (0 nM, 50 nM and 200 nM) dissolved in DMSO in 96-well MatriGel-coated plates for one hour. Wells were photographed after 8 hours and number of polygons (enclosed shapes bordered by tubes) manually counted and expressed as a percentage of the DMSO-only control.

[3] = system: p38 MAPK; experiment: Phosphorylation of p38 MAPK in HRECs after TNF-α (immunoblot); assay type: cell-based, human
Experimental: HRECs were seeded at 10^5 cells/well in a 6-well plate and after 24 hours of incubation at 37° C., cells were serum starved in 0.1% serum-EBM-2 for 8 hours. Cells were then treated with the indicated concentrations of SH-11052 (2) for one hour before the addition of 20 ng/ml of TNF-α. After 20 minutes, cells were lysed in NP-40 Lysis buffer containing 25 mM HEPES pH 7.4, 1% NP-40, 150 mM NaCl, 10% glycerol, 1 mM sodium orthovanadate, 10 mM sodium fluoride, 1 mM sodium pyrophosphate, 1 mM PMSF, 2.5 mg/ml aprotinin, 1 mM pepstatin, and 1 mM leupeptin. Equal amounts of proteins (80 μg), as measured by a Bradford assay, were run on 10% SDS-PAGE, transferred to PVDF membrane, blocked with 5% BSA in TBS-0.05% Tween-20 and immunoblotted with the indicated primary antibodies (1:1000 in 1% BSA in TBS-0.05% Tween-20) overnight at 4° C. After three washes in TBS-0.05% Tween-20, HRP-conjugated secondary antibodies (1:5000 in 5% BSA in TBS-0.05% Tween-20) were applied for one hour at room temperature. After three washes, the protein bands were detected and densitized using ECL Prime western blot detection reagent (GE Life Sciences, Piscataway, N.J., USA) and an XRS gel documentation system running Quantity One software (Bio-Rad). Target protein band intensity was normalized to housekeeping gene α-tubulin. […]

[4] = system: PTGS2 (COX2); experiment: qRT-PCR of NF-κB target gene PTGS2 in TNF-α challenged cells; assay type: cell-based, human; details: 10 ng/ml TNF-α for 24 hours; listed as SH-11052 (2)
Experimental: Similarly, the mRNA expression of the pro-inflammatory molecules IL8, PTGS2 (COX2) and CCL2 (MCP-1), inducible by NF-κB, were analyzed in the presence of SH-11052 (2). Cells (10^5 per well) were seeded in a 6-well plate and incubated for 24 hours at 37° C. and 5% CO2. The cells were then starved in 0.1% serum-EBM-2 for 12 hours followed by incubation for an hour in the presence of different concentrations of SH-11052 (2). The cells were then challenged for 24 hours with 10 ng/ml TNF-α. Following incubation, cells were lysed and RNA was isolated using Trizol reagent (Life Technologies). cDNA was prepared from 80 ng total RNA using random primers and M-MuLV Reverse Transcriptase (New England Biolabs, Ipswich, Mass., USA). RT-PCR reactions were set up using the TaqMan Fast Gene Expression Assay Kit according to the manufacturer's instructions. FAM-labeled TaqMan probes for PTGS2 (Hs00153133_m1), CCL2 (Hs00234140_m1), IL8 (Hs00174103_m1), and control, TBP (Hs99999910_m1), genes were used to monitor the expression levels of these genes. The qRT-PCR plate was read in a ViiATM 7 qPCR system (Life Technologies) and the data were analyzed using the ΔΔCt method. The expression levels of genes were normalized to TBP gene expression and calibrated to the DMSO-treated, unstimulated sample.

[5] = system: p21, CDK1, IL-6 and IL-8; experiment: Gene expression effects on p21, CDK1, IL-6 and IL-8 (data not shown); assay type: cell-based; details: compared with cremastranone
[6] = system: oxygen-induced retinopathy (OIR); experiment: Oxygen-induced retinopathy (OIR) mouse model, intravitreal injection; assay type: in vivo, C57BL/6 mice; details: single intravitreal dose, estimated 1 μM, injected P12, read P17; listed as SH-11037 (6c)
Experimental: Particularly, neonatal C57BL/6 mice (n=3-4 pups per group) were exposed to 75% oxygen from postnatal day 7 (P7) until P12 and brought to room air to cause ischemia and extensive neovessel formation at P17. The hyperoxia obliterates the normal retinal vasculature, prompting aberrant overgrowth including intravitreal vascular tufts, once returned to normoxia. Further, mice were injected with PBS alone (vehicle) or PBS containing SH-11037 (6c) to give the estimated intravitreal concentrations of 1.0 μM using a 33G needle, under isoflurane anesthesia at the time of return to room air on P12. At P17, the mice were euthanized, eyes fixed, and retinal wholemounts were prepared.
Wholemounts were stained with AlexaFluor488-isolectin B4 and imaged on a Zeiss LSM700 confocal microscope. Neovascular area, as a percentage of total retinal area, was calculated using ImageJ with the SWIFT_NV plugin.

Row | Structure (SMILES) | DNA synthesis (EdU incorporation) in HUVECs [1] | tube formation ability of HRECs at 140 μM ([2]; 140 μM, 8 hours) | tube formation ability of HRECs ([2]; listed as SH-11052 (2)) | tube formation of HRECs at the GI50 value ([2]; compound at its GI50 value, 8 hours) | phosphorylation of p38 MAPK [3] | mRNA expression of PTGS2 (COX2) [4] | block of HREC tube formation ([2]; 500 nM, polygons vs DMSO-only control) [%] | tube formation ability of HRECs [2] | gene expression effects on p21, CDK1, IL-6 and IL-8 [5] | neovascular area / neovascularization in vivo [6]
1 | COc1ccc(CC2COc3cc(OC)c(O)c(O)c3C2=O)cc1O (single isomer, unassigned) [Compound 2] | blocked EdU incorporation; also recorded: significantly inhibited in a dose dependent manner | completely abolished | inhibited tube formation; also recorded: significant reduction in their tube formation ability | significant reduction in tube formation | inhibited phosphorylation | decreased the expression | – | – | – | –
2 | COc1ccc(CC2COc3cc(OC)c(OC)c(OC)c3C2=O)cc1OC(=O)[C@H](Cc1ccccc1)NC(=O)OC(C)(C)C (stereo partly drawn) [Compound 6c, (2S)-2-methoxy-5-((5,6,7-trimethoxy-4-oxochroman-3-yl)methyl)phenyl 2-((tert-butoxycarbonyl)amino)-3-phenylpropanoate] | – | – | – | – | – | – | 88 | inhibited | did not share cremastranone's gene expression effects | blocked neovascularization in vivo; also recorded: significantly decreased neovascular area
